{"source": "the supplement of paper PMC10307832", "experiment_in_all_cases": "relative viability (nuclei count vs DMSO), 5 days (fraction); higher = more cells survive", "key": {"[1]": {"compound": "CC1=C(C(=O)N2C=CSC2=N1)CCN3CCC(=C(C4=CC=CC=C4)C5=CC=C(C=C5)F)CC3", "in_short": "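Viability was read as treated-well nuclei divided by vehicle-well nuclei, using the median across plates. Lung cancer cell lines in 1536-well plates were kept overnight at 37 °C, pinned with five √10-spaced library-drug doses, and after 5 days were Hoechst-stained, imaged at 4× and counted in MetaXpress. Plates passed only with control CV below 25% and at least one doubling.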"}, "[2]": {"compound": "CC1=C(C(=O)N2C=CSC2=N1)CCN3CCC(=C(C4=CC=CC=C4)C5=CC=C(C=C5)F)CC3 + CC(=O)Nc1cccc(-n2c(=O)n(C3CC3)c(=O)c3c(Nc4ccc(I)cc4F)n(C)c(=O)c(C)c32)c1 [Trametinib] (partner 0.02 µM)", "in_short": "(§1)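 Each reported value is a median over duplicate plates. It expresses relative viability: treated-well nuclei count divided by vehicle-well nuclei count. Lung cancer cell lines in 1536-well plates were dosed by pin tool a day after seeding, alone with one drug or with a fixed anchor-drug dose plus five library-drug doses (not always all listed) in √10 steps, and nuclei were counted after 5 days.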"}, "[3]": {"compound": "CC1=C(C(=O)N2C=CSC2=N1)CCN3CCC(=C(C4=CC=CC=C4)C5=CC=C(C=C5)F)CC3 + CC(=O)c1c(C)c2cnc(Nc3ccc(N4CCNCC4)cn3)nc2n(C2CCCC2)c1=O [Palbociclib] (partner 0.5 µM)", "in_short": "as §1"}, "[4]": {"compound": "CC1=C(C(=O)N2C=CSC2=N1)CCN3CCC(=C(C4=CC=CC=C4)C5=CC=C(C=C5)F)CC3 + CCNC(=O)c1noc(-c2cc(C(C)C)c(O)cc2O)c1-c1ccc(CN2CCOCC2)cc1 [Luminespib] (partner 0.01 µM)", "in_short": "as §1"}, "[5]": {"compound": "CC1=C(C(=O)N2C=CSC2=N1)CCN3CCC(=C(C4=CC=CC=C4)C5=CC=C(C=C5)F)CC3 + COc1cc2c(Oc3ccc(NC(=O)C4(C(=O)Nc5ccc(F)cc5)CC4)cc3F)ccnc2cc1OCCCN1CCOCC1 [Foretinib] (partner 0.25 µM)", "in_short": "as §1"}, "[6]": {"compound": "CC1=C(C(=O)N2C=CSC2=N1)CCN3CCC(=C(C4=CC=CC=C4)C5=CC=C(C=C5)F)CC3 + COc1cccc2cc(-c3nc([C@H]4CC[C@H](C(=O)O)CC4)n4ncnc(N)c34)[nH]c12 [OSI-027] (partner 0.5 µM)", "in_short": "as §1"}, "[7]": {"compound": "CC1=C(C(=O)N2C=CSC2=N1)CCN3CCC(=C(C4=CC=CC=C4)C5=CC=C(C=C5)F)CC3 + Cc1cc(Nc2cc(N3CCN(C)CC3)nc(Sc3ccc(NC(=O)C4CC4)cc3)n2)n[nH]1 [Tozasertib] (partner 0.1 µM)", "in_short": "as §1"}, "[8]": {"compound": "CC1=C(C(=O)N2C=CSC2=N1)CCN3CCC(=C(C4=CC=CC=C4)C5=CC=C(C=C5)F)CC3 + Cc1nc(Nc2ncc(C(=O)Nc3c(C)cccc3Cl)s2)cc(N2CCN(CCO)CC2)n1 [Dasatinib] (partner 0.075 µM)", "in_short": "as §1"}, "[9]": {"compound": "CC1=C(C(=O)N2C=CSC2=N1)CCN3CCC(=C(C4=CC=CC=C4)C5=CC=C(C=C5)F)CC3 + N=C(N)NC(=N)NCCc1ccccc1 [Phenformin] (partner 250 µM)", "in_short": "as §1"}, "[10]": {"compound": "CC1=C(C(=O)N2C=CSC2=N1)CCN3CCC(=C(C4=CC=CC=C4)C5=CC=C(C=C5)F)CC3 + NC(=O)Nc1cc(-c2cccc(F)c2)sc1C(=O)N[C@H]1CCCNC1 [AZD7762] (partner 0.2 µM)", "in_short": "as §1"}, "[11]": {"compound": "CC1=C(C(=O)N2C=CSC2=N1)CCN3CCC(=C(C4=CC=CC=C4)C5=CC=C(C=C5)F)CC3 + Nc1nc2[nH]cc(CCc3ccc(C(=O)N[C@@H](CCC(=O)O)C(=O)O)cc3)c2c(=O)[nH]1 [Pemetrexed] (partner 0.2 µM)", "in_short": "as §1"}, "[12]": {"compound": "CC1=C(C(=O)N2C=CSC2=N1)CCN3CCC(=C(C4=CC=CC=C4)C5=CC=C(C=C5)F)CC3 + Nc1ncn([C@H]2C[C@H](O)[C@@H](CO)O2)c(=O)n1 [Decitabine] (partner 2 µM)", "in_short": "as §1"}, "[13]": {"compound": "CC1=C(C(=O)N2C=CSC2=N1)CCN3CCC(=C(C4=CC=CC=C4)C5=CC=C(C=C5)F)CC3 + O=C(CCCCCCC(=O)Nc1ccccc1)NO [Vorinostat] (partner 1 µM)", "in_short": "as §1"}, "[14]": {"compound": "CC1=C(C(=O)N2C=CSC2=N1)CCN3CCC(=C(C4=CC=CC=C4)C5=CC=C(C=C5)F)CC3 + O=C(c1cc(Cc2n[nH]c(=O)c3ccccc23)ccc1F)N1CCN(C(=O)C2CC2)CC1 [Olaparib] (partner 8 µM)", "in_short": "as §1"}}, "data": [{"cell line": "SW 900", "values": [{"measurement": "relative viability", "setting": "[1]; 0.08 µM", "value": 0.89}, {"measurement": "relative viability", "setting": "[1]; 0.253 µM", "value": 1.02}, {"measurement": "relative viability", "setting": "[1]; 0.8 µM", "value": 0.883}, {"measurement": "relative viability", "setting": "[1]; 2.53 µM", "value": 1.04}, {"measurement": "relative viability", "setting": "[1]; 8 µM", "value": 0.595}, {"measurement": "relative viability", "setting": "[2]; first compound 0.08 µM", "value": 0.821}, {"measurement": "relative viability", "setting": "[2]; first compound 0.253 µM", "value": 1.18}, {"measurement": "relative viability", "setting": "[2]; first compound 0.8 µM", "value": 0.855}, {"measurement": "relative viability", "setting": "[2]; first compound 2.53 µM", "value": 0.614}, {"measurement": "relative viability", "setting": "[2]; first compound 8 µM", "value": 0.497}, {"measurement": "relative viability", "setting": "[3]; first compound 0.08 µM", "value": 0.524}, {"measurement": "relative viability", "setting": "[3]; first compound 0.253 µM", "value": 0.514}, {"measurement": "relative viability", "setting": "[3]; first compound 0.8 µM", "value": 0.543}, {"measurement": "relative viability", "setting": "[3]; first compound 2.53 µM", "value": 0.58}, {"measurement": "relative viability", "setting": "[3]; first compound 8 µM", "value": 0.526}, {"measurement": "relative viability", "setting": "[4]; first compound 0.08 µM", "value": 0.181}, {"measurement": "relative viability", "setting": "[4]; first compound 0.253 µM", "value": 0.182}, {"measurement": "relative viability", "setting": "[4]; first compound 0.8 µM", "value": 0.188}, {"measurement": "relative viability", "setting": "[4]; first compound 2.53 µM", "value": 0.188}, {"measurement": "relative viability", "setting": "[4]; first compound 8 µM", "value": 0.174}, {"measurement": "relative viability", "setting": "[5]; first compound 0.08 µM", "value": 0.833}, {"measurement": "relative viability", "setting": "[5]; first compound 0.253 µM", "value": 0.935}, {"measurement": "relative viability", "setting": "[5]; first compound 0.8 µM", "value": 0.951}, {"measurement": "relative viability", "setting": "[5]; first compound 2.53 µM", "value": 0.988}, {"measurement": "relative viability", "setting": "[5]; first compound 8 µM", "value": 0.566}, {"measurement": "relative viability", "setting": "[6]; first compound 0.08 µM", "value": 0.452}, {"measurement": "relative viability", "setting": "[6]; first compound 0.253 µM", "value": 0.543}, {"measurement": "relative viability", "setting": "[6]; first compound 0.8 µM", "value": 0.582}, {"measurement": "relative viability", "setting": "[6]; first compound 2.53 µM", "value": 0.719}, {"measurement": "relative viability", "setting": "[6]; first compound 8 µM", "value": 0.276}, {"measurement": "relative viability", "setting": "[7]; first compound 0.08 µM", "value": 0.539}, {"measurement": "relative viability", "setting": "[7]; first compound 0.253 µM", "value": 0.636}, {"measurement": "relative viability", "setting": "[7]; first compound 0.8 µM", "value": 0.606}, {"measurement": "relative viability", "setting": "[7]; first compound 2.53 µM", "value": 0.602}, {"measurement": "relative viability", "setting": "[7]; first compound 8 µM", "value": 0.351}, {"measurement": "relative viability", "setting": "[8]; first compound 0.08 µM", "value": 0.399}, {"measurement": "relative viability", "setting": "[8]; first compound 0.253 µM", "value": 0.634}, {"measurement": "relative viability", "setting": "[8]; first compound 0.8 µM", "value": 0.634}, {"measurement": "relative viability", "setting": "[8]; first compound 2.53 µM", "value": 0.584}, {"measurement": "relative viability", "setting": "[8]; first compound 8 µM", "value": 0.41}, {"measurement": "relative viability", "setting": "[9]; first compound 0.08 µM", "value": 0.474}, {"measurement": "relative viability", "setting": "[9]; first compound 0.253 µM", "value": 0.68}, {"measurement": "relative viability", "setting": "[9]; first compound 0.8 µM", "value": 0.521}, {"measurement": "relative viability", "setting": "[9]; first compound 2.53 µM", "value": 0.568}, {"measurement": "relative viability", "setting": "[9]; first compound 8 µM", "value": 0.516}, {"measurement": "relative viability", "setting": "[10]; first compound 0.08 µM", "value": 0.517}, {"measurement": "relative viability", "setting": "[10]; first compound 0.253 µM", "value": 0.666}, {"measurement": "relative viability", "setting": "[10]; first compound 0.8 µM", "value": 0.656}, {"measurement": "relative viability", "setting": "[10]; first compound 2.53 µM", "value": 0.737}, {"measurement": "relative viability", "setting": "[10]; first compound 8 µM", "value": 0.367}, {"measurement": "relative viability", "setting": "[11]; first compound 0.08 µM", "value": 0.436}, {"measurement": "relative viability", "setting": "[11]; first compound 0.253 µM", "value": 0.532}, {"measurement": "relative viability", "setting": "[11]; first compound 0.8 µM", "value": 0.484}, {"measurement": "relative viability", "setting": "[11]; first compound 2.53 µM", "value": 0.5}, {"measurement": "relative viability", "setting": "[11]; first compound 8 µM", "value": 0.281}, {"measurement": "relative viability", "setting": "[12]; first compound 0.08 µM", "value": 0.477}, {"measurement": "relative viability", "setting": "[12]; first compound 0.253 µM", "value": 0.437}, {"measurement": "relative viability", "setting": "[12]; first compound 0.8 µM", "value": 0.407}, {"measurement": "relative viability", "setting": "[12]; first compound 2.53 µM", "value": 0.45}, {"measurement": "relative viability", "setting": "[12]; first compound 8 µM", "value": 0.496}, {"measurement": "relative viability", "setting": "[13]; first compound 0.08 µM", "value": 0.438}, {"measurement": "relative viability", "setting": "[13]; first compound 0.253 µM", "value": 0.751}, {"measurement": "relative viability", "setting": "[13]; first compound 0.8 µM", "value": 0.478}, {"measurement": "relative viability", "setting": "[13]; first compound 2.53 µM", "value": 0.603}, {"measurement": "relative viability", "setting": "[13]; first compound 8 µM", "value": 0.241}, {"measurement": "relative viability", "setting": "[14]; first compound 0.08 µM", "value": 0.896}, {"measurement": "relative viability", "setting": "[14]; first compound 0.253 µM", "value": 0.878}, {"measurement": "relative viability", "setting": "[14]; first compound 0.8 µM", "value": 0.841}, {"measurement": "relative viability", "setting": "[14]; first compound 2.53 µM", "value": 0.848}, {"measurement": "relative viability", "setting": "[14]; first compound 8 µM", "value": 0.706}]}]}
